Measurements reported in patent US7034027B2, “Fused heterocyclic derivatives as phosphodiesterase inhibitors” (Lilly Icos LLC, priority 2000, dated 2006).
pIC50: −log10 of the molar value.

Experiments:
[1] = target: T1, human recombinant PDE5 (Homo sapiens, UniProt O76074); test: Inhibitory effect on cGMP-PDE (PDE5 IC50, one-step assay); format: biochemical; conditions: in vitro
T1 construct: host or cells: Saccharomyces cerevisiae BJ2-54 (exemplary method)
Description: The compounds of structural formula (I) were tested for an ability to inhibit PDE5. The ability of a compound to inhibit PDE5 activity is related to the IC50 value for the compound, i.e., the concentration of inhibitor required for 50% inhibition of enzyme activity. The IC50 value for compounds of structural formula (I) were determined using recombinant human PDE5.
cGMP-PDE activity of compounds of the present invention was measured using a one-step assay adapted from Wells et al., Biochim. Biophys. Acta, 384, 430 (1975). The reaction medium contained 50 mM Tris-HCl, pH 7.5, 5 mM magnesium acetate, 250 μg/ml 5′-Nucleotidase, 1 mM EGTA, and 0.15 μM 8-[H^3]-cGMP. Unless otherwise indicated, the enzyme used was a human recombinant PDE5 (ICOS Corp., Bothell, Wash.).
Compounds of the invention were dissolved in DMSO finally present at 2% in the assay.

| Compound | pIC50 [1] | melting point [°C] |
| --- | --- | --- |
| O=C1N[C@H](CO)C(=O)N2[C@H](c3ccc4c(c3)OCO4)c3[nH]c4ccccc4c3C[C@H]12 [Example 8, (3R,6R,12aR)-6-Benzo[1,3]dioxo-5-yl-3-hydroxymethyl-2,3,6,7,12,12a-hexahydropyrazino[1′,2′:1,;6]pyrido[3,4-b]indole-1,4-dione] | 7.55 | 194 to 200 |
| CN1C(=O)[C@H]2Cc3c([nH]c4ccccc34)C(c3ccc4c(c3)OCO4)N2C(=O)C1(C)C (mixture of isomers) [Example 1, (12a,R)-6-Benzo[1,3]dioxol-5-yl,2,3,3-trimethyl-2,3,6,7,12,12a-hexahydropyrazino[1′,2′:1,6]-pyrido[3,4-b]indole-1,4-dione] | 6.79 | 225 to 235 |
| CN1CCC(=O)N2[C@H](c3ccc4c(c3)OCO4)c3[nH]c4ccccc4c3C[C@H]2C1=O [Example 4, (5aS,11R)-11-Benzo[1,3]dioxol-5-yl-7-methyl-5,5a,8,9,11,12-hexahydro-7H-7,10a,12-triaza-cyclohepta[b]fluorene-6,10-dione] | 6.23 | 179 to 182 |
| O=C1NNC(=O)N2[C@H](c3ccc4c(c3)OCO4)c3[nH]c4ccccc4c3C[C@H]12 [Example 3, (5aR,10R)-10-Benzo[1,3]dioxol-5-yl-5,5a,7,8,10,11-hexahydro-7,8,9a,11-tetraazabenzo[b]fluorene-6,9-dione] | 6.95 | 188 to 194 |
| NC(=O)CC[C@@H]1NC(=O)[C@H]2Cc3c([nH]c4ccccc34)[C@@H](c3ccc4c(c3)OCO4)N2C1=O [Example 2, 3-((3S,6R,12aR)-6-Benzo[1,3]dioxol-5-yl-1,4-dioxo-1,2,3,4,6,7,12,12a-octahydropyrazino[1′,2′:1,6]-pyrido[3,4-b]indo-3-yl)propionamide] | 8.66 | 78 to 82 |
| CC(C)OC(=O)CC[C@@H]1NC(=O)[C@H]2Cc3c([nH]c4ccccc34)[C@@H](c3ccc4c(c3)OCO4)N2C1=O [Example 7, 3-((3S,6R,12aR)-6-Benzo[1,3]dioxol-5-yl-1,4-dioxo-1,2,3,4,6,7,12,12a-octahydropyrazino[1′,2′:1,6]pyrido[3,4-b]indol-3-yl)-propionic acid isopropyl ester] | 9.70 |  |
| O=C(O)CC[C@@H]1NC(=O)[C@H]2Cc3c([nH]c4ccccc34)[C@@H](c3ccc4c(c3)OCO4)N2C1=O [Example 6, 3-((3S,6R,12aR)-6-Benzo[1,3]dioxol-5-yl-1,4-dioxo-1,2,3,4,6,7,12,12a-octahydropyrazino[1′,2′:1,6]pyrido[3,4-b]indole-3-yl)propionic acid] | 9.00 |  |
| CC(C)(C)OC(=O)CC[C@@H]1NC(=O)[C@H]2Cc3c([nH]c4ccccc34)[C@@H](c3ccc4c(c3)OCO4)N2C1=O [Example 5] | 9.22 | 222 to 227 |
